# Assay results reported in patent US11976051B1, “N′-(2-(5-(4-chlorophenyl)-1,3,4-oxadiazol-2-ylthio)acetoxy)-2-naphthimidamide as an antimicrobial compound” (KING FAISAL UNIVERSITY, priority 2023, dated 2024).
# Tests used:
# Bacillus cereus = assay: Agar plate disc-diffusion, antibacterial activity; type: cell-based; settings: nutrient agar, 37° C., 48 h
# Procedure: (§1) The agar plate disc-diffusion method was applied. […] The discs were then placed onto the surface of agar plates (nutrient agar for bacteria and Sabouraud's dextrose agar for fungi) seeded with the test organism. Each plate contained 15 mL of the agar medium, previously seeded with 0.2 mL of the broth culture of each organism pregrown for 18 h. The plates were incubated at 37° C. for 48 h, and 72 h for fungi. The inhibition zones was measured in mm. Discs impregnated with DMSO were used as a control, and its inhibition zone was subtracted from the tested compound actual inhibition zone.
# (§2) The antibacterial activity was screened against gram positive bacteria namely Bacillus cereus and Staphylococcus aureus and gram-negative bacterial strains namely Pseudomonas aeruginosa and Escherichia coli, while the antifungal activity was screened against Aspergillus flavus and Chrysosporium keratinophilum as shown in Table 1 and 2.
# Pseudomonas aeruginosa = assay: Agar plate disc-diffusion, antibacterial activity; type: cell-based; settings: nutrient agar, 37° C., 48 h
# Procedure: as §1, §2
# Staphylococcus aureus = assay: Agar plate disc-diffusion, antibacterial activity; type: cell-based; settings: nutrient agar, 37° C., 48 h
# Procedure: as §1, §2
# Escherichia coli = assay: Agar plate disc-diffusion, antibacterial activity; type: cell-based; settings: nutrient agar, 37° C., 48 h
# Procedure: (§3) The agar plate disc-diffusion method was applied. Sterilized filter papers (6 mm in diameter) were wetted with […] of a solution of N′-(2-(5-(4-chlorophenyl)-1,3,4-oxadiazol-2-ylthio)acetoxy)-2-naphthimidamide (3) to be tested, containing 10 mg/mL in DMSO, and the discs were allowed to air dry. The discs were then placed onto the surface of agar plates (nutrient agar for bacteria and Sabouraud's dextrose agar for fungi) seeded with the test organism. Each plate contained 15 mL of the agar medium, previously seeded with 0.2 mL of the broth culture of each organism pregrown for 18 h. The plates were incubated at 37° C. for 48 h, and 72 h for fungi. The inhibition zones was measured in mm. Discs impregnated with DMSO were used as a control, and its inhibition zone was subtracted from the tested compound actual inhibition zone.
# as §2
# Aspergillus flavus = assay: Agar plate disc-diffusion, antifungal activity; type: cell-based; settings: Sabouraud's dextrose agar, 72 h
# Procedure: as §3, §2
# [1] = test system: Chrysosporium keratinophilum; assay: Agar plate disc-diffusion, antifungal activity; type: cell-based; settings: Sabouraud's dextrose agar, 72 h
# Procedure: as §1, §2
# [2] = A = concentration of comp. = 10 mg/mL
# [3] = B = concentration of comp. = 30,000 μL
# [4] = C = concentration of comp. = 50,000 μL
# [5] = A = concentration of comp. = 10,000 μg/mL
smiles,measurement,setting,value
"N/C(=N\OC(=O)CSc1nnc(-c2ccc(Cl)cc2)o1)c1ccc2ccccc2c1 [Compound 3, N′-(2-(5-(4-chlorophenyl)-1,3,4-oxadiazol-2-ylthio)acetoxy)-2-naphthimidamide]","inhibition zone, Bacillus Cereus",Bacillus cereus; [2],31 mm
same,"inhibition zone, Bacillus Cereus",Bacillus cereus; [3],36 mm
same,"inhibition zone, Bacillus Cereus",Bacillus cereus; [4],43 mm
same,"inhibition zone, Pseudomonas aeruginosa",Pseudomonas aeruginosa; [2],26 mm
same,"inhibition zone, Pseudomonas aeruginosa",Pseudomonas aeruginosa; [3],33 mm
same,"inhibition zone, Pseudomonas aeruginosa",Pseudomonas aeruginosa; [4],39 mm
same,"inhibition zone, Staphylococcus aureus",Staphylococcus aureus; [2],17 mm
same,"inhibition zone, Staphylococcus aureus",Staphylococcus aureus; [3],24 mm
same,"inhibition zone, Staphylococcus aureus",Staphylococcus aureus; [4],29 mm
same,"inhibition zone, Escherichia coli",Escherichia coli; [5],35 mm
same,"inhibition zone, Escherichia coli",Escherichia coli; [3],41 mm
same,"inhibition zone, Escherichia coli",Escherichia coli; [4],47 mm
same,"inhibition zone, Aspergillus flavus","Aspergillus flavus; A = concentration of comp. = 10,000 μL",25 mm
same,"inhibition zone, Aspergillus flavus",Aspergillus flavus; [3],28 mm
same,"inhibition zone, Aspergillus flavus",Aspergillus flavus; [4],37 mm
same,"inhibition zone, Chrysosporium keratinophilum",[1]; [5],23 mm
same,"inhibition zone, Chrysosporium keratinophilum",[1]; [3],29 mm
same,"inhibition zone, Chrysosporium keratinophilum",[1]; [4],38 mm
same,melting point,,181 to 182 °C
